The text below walks through data of ChEMBL document CHEMBL1201862, “PubChem BioAssay data set” (2004).

Among the test systems are A549; CAKI-1; CCRF-CEM; COLO 205; EKVX; HCT-116; IGROV-1; K562; KM12; NCI-H226; NCI-H23; NCI-H460; OVCAR-8; SF-295; SF-539; SK-MEL-5; SNB-75; UACC-257; UACC-62; UO-31.
Test in all cases: DTP human tumour cell line panel, 48 h

Structures are written as SMILES.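 1) Cells in 96-well plates. 2) Compound, 48 h, 5 concentrations. 3) Linear interpolation between surrounding doses. 4) Unreached endpoint = highest concentration. Abbreviation: GI50, concentration required for 50% inhibition of growth.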 The source made the active and inactive calls. No stated cut-off is given here; in the data, active = GI50 up to about 1.1 µM and inactive = higher. Where only a bound is given, the exact number is not on record here.

As a reminder, the GI50 is the concentration giving 50% growth inhibition. For the molecule `COC(=O)C1=C(C)N2CCCOC2(C)C(C(=O)OC)C1c1cccc(Cl)c1` (stereo not given), the GI50 was > 100 µM (inactive) in the assay on A549; 17.5 µM (inactive) with CAKI-1; 27.7 µM (inactive) in the assay with CCRF-CEM; 17.3 µM (inactive) in the assay on COLO 205; 14 µM (inactive) in the assay with EKVX; 25 µM (inactive) in the assay on HCT-116. Also, the GI50 is 25.7 µM (inactive) in the assay on IGROV-1; 27.2 µM (inactive) in the assay with K562; 17.9 µM (inactive) with KM12; 17.8 µM (inactive) in the assay on NCI-H226; 31.8 µM (inactive) with NCI-H23; 20.5 µM (inactive) with NCI-H460. The GI50 in the assay with OVCAR-8 was 24.9 µM (inactive); with SF-295, 21.7 µM (inactive); in the assay on SF-539, 27.8 µM (inactive); in the assay with SK-MEL-5, > 100 µM (inactive); in the assay with SNB-75 it was 0.452 µM (active); with UACC-257 it was 19.7 µM (inactive). In addition, the GI50 is 15.2 µM (inactive) in the assay with UACC-62 and 22.3 µM (inactive) with UO-31.
With `CCCCC#CS(=O)(=O)C(F)(F)F`, the GI50 in the assay on A549 was > 78.9 µM (inactive); in the assay with CAKI-1, 0.605 µM (active); in the assay with CCRF-CEM, 48.6 µM (inactive); with COLO 205 it was > 75.7 µM (inactive); in the assay with EKVX it was > 100 µM (inactive); in the assay with HCT-116, 36 µM (inactive). The GI50 with IGROV-1 was > 100 µM (inactive); in the assay with K562, 45.4 µM (inactive); in the assay on KM12 it was > 83.9 µM (inactive); with NCI-H226, > 100 µM (inactive); in the assay on NCI-H23, 58.6 µM (inactive); in the assay on NCI-H460 it was > 92.5 µM (inactive). Further, the GI50 is 97.1 µM (inactive) in the assay with OVCAR-8; 20.3 µM (inactive) in the assay with SF-295; > 100 µM (inactive) with SF-539; 52.7 µM (inactive) with SK-MEL-5; 36.6 µM (inactive) in the assay on SNB-75; 12.9 µM (inactive) in the assay with UACC-257. Also, the GI50 in the assay on UACC-62 is 48.2 µM (inactive); with UO-31, 68.9 µM (inactive).
With `O=C1/C(=C/c2ccc(Cl)cc2)N=C(c2ccccc2)N1/N=C/c1ccccc1O`, the GI50 was 19.2 µM (inactive) in the assay on A549; 7.6 µM (inactive) in the assay with CAKI-1; 2.11 µM (inactive) in the assay with CCRF-CEM; 16.3 µM (inactive) with COLO 205; 4.66 µM (inactive) with EKVX; 2.44 µM (inactive) in the assay with HCT-116. The GI50 in the assay on IGROV-1 is 8.26 µM (inactive); in the assay with K562 it was 9.12 µM (inactive); in the assay with KM12 it was 12.9 µM (inactive); in the assay on NCI-H226, 19.2 µM (inactive); in the assay with NCI-H23, > 100 µM (inactive); in the assay with NCI-H460, 18 µM (inactive). The GI50 in the assay with OVCAR-8 is 5.51 µM (inactive); with SF-295 it was 11.9 µM (inactive); with SF-539 it was 10.9 µM (inactive); in the assay on SK-MEL-5 it was 15.1 µM (inactive); in the assay on SNB-75 it was 6.31 µM (inactive); with UACC-257, > 100 µM (inactive). Moreover, the figures for the GI50 in the assay on UACC-62 and in the assay with UO-31 were 13.9 µM (inactive) and 11.6 µM (inactive), respectively.
